Key:
[1] = system: LDL receptor-deficient mice; experiment: Effect on atherosclerosis in an in vivo atherosclerosis model (2): LDL receptor-deficient mice; conditions: for Inhibitory effect on arteriosclerosis (in words): LDL receptor-deficient mice; for Area of Arteriosclerotic lesions (mm^2): 0.5% in high-fat diet, 13 weeks, arcus aorta
From the text: Effect on Atherosclerosis in an in vivo Atherosclerosis Model (2)
In order to evaluate the inhibitory effect of the compound of Example 1 on atherosclerosis in an in vivo atherosclerosis, LDL receptor-deficient mice were used.
One of the remaining two groups similarly received a high-fat diet containing neither probucol nor the compound of Example 1 and was used as a control and the other one group similarly received a normal, chow diet containing neither probucol nor the compound of Example 1.
(§1) After administration of the compound for 13 weeks, the arcus aorta was removed from each of the animals, transversely sectioned and stained with Sudan IV. The area of arteriosclerotic lesions was determined by an image analysis under an optical microscope. The average of the area of arteriosclerotic lesions in the aucus aortae was calculated for each animal. The number of animals used for the evaluation was 5 for the normal chow diet group consisting of female mice and 7-9 for the other groups.

[2] = system: LDL receptor-deficient mice; experiment: Effect on formation of xanthoma in an in vivo xanthoma model; conditions: for Inhibitory effect on formation of xanthomas (in words): LDL receptor-deficient mice; for Xanthoma score: 0.5% in high-fat diet, 13 weeks, forefeet and palpebrae, total score
From the text: Effect on Formation of Xanthoma in an in vivo Xanthoma Model
In order to evaluate the inhibitory effect of the compound of Example 1 on xanthoma in an in vivo xanthoma model, LDL receptor-deficient mice were used.
One of the remaining two groups similarly received a high-fat feed containing neither probucol nor the compound of Example 1 and was used as a control and the other one group similarly received a normal, chow diet feed containing neither probucol nor the compound of Example 1.
After administration of the compound for 13 weeks, xanthomas were scored in both forefeet and palpebrae based on the appearance thereof and the scores were totalized. The number of animals used for the evaluation was 5 for the normal feed group consisting of female mice and 7-9 for the other groups.

[3] = system: LDL receptor/apolipoprotein E double hetero-deficient mice; experiment: Effect on atherosclerosis in an in vivo atherosclerosis model (3): LDL receptor/Apo E hetero-deficient mice; conditions: for Inhibitory effect on arteriosclerosis (in words): LDL receptor/Apo E hetero-deficient mice; for Area of Arteriosclerotic lesions (mm^2): female mice, 0.5% in high-fat diet, 6 months, arcus aorta
From the text: Effect on Atherosclerosis in an in vivo Atherosclerosis Model (3)
In order to evaluate the inhibitory effect of the compound of Example 1 on atherosclerosis in an in vivo atherosclerosis model, LDL receptor/apolipoprotein E double hetero-deficient (LDL receptor/Apo E hetero-deficient) mice were used.
One of the remaining two groups similarly received a high-fat feed containing neither probucol nor the compound of Example 1 and was used as a control and the other one group similarly received a normal, chow diet containing neither probucol nor the compound of Example 1.
as §1, with “6 months,” for “13 weeks,”, “2” for “5”, “feed” for “chow diet”, “group” for “group consisting of female mice”, “5-6” for “7-9”

[4] = system: Watanabe Heritable Hyperlipidemic (WHHL) rabbits; experiment: Effect on atherosclerosis in an in vivo atherosclerosis model (1): WHHL rabbits; design: species or system rabbit; conditions: for Lesions in arch section (%) / Lesions in the whole aorta (%): 6 months
From the text: Effect on Atherosclerosis in an in vivo Atherosclerosis Model (1)
In order to evaluate the inhibitory effect of the compound of Example 1 on atherosclerosis in an in vivo atherosclerosis model, Watanabe Heritable Hyperlipidemic (WHHL) rabbits were used.
Specifically, 4 groups of 4 or 5 WHHL rabbits (Kbl: 2 to 3-month-old male) were conditioned for a week, and then 3 groups of them received 1% probucol and 0.2% and 0.5% Example 1 compound contained in a normal chow diet, respectively, by limited feeding (40 g/kg) once a day for 6 months. The other one group similarly received the normal chow diet containing neither probucol nor the compound of Example 1 and was used as a control.
After administration of the compound for 6 months, the aorta was removed from each of the animals and visualized to prepare a photograph of the inside of the aortic sample. White fat deposition area which represents arteriosclerotic lesions was determined by the image analysis on the photograph for each of three parts of the aortic sample (arch, chest and abdomen). From the results, the proportions (percentage) of the fat deposition area to the overall area for the arch section and the whole aorta were obtained. Four or five animals were used for each group for the evaluation.

femoral atheroscleroses = conditions: literature report; cited from earlier work

CCCCCC1(CCCCC)Cc2c(cc(C(C)(C)C)c(O)c2C(C)(C)C)O1 [Example 1, 4,6-di-t-butyl-2,2-di-n-pentyl-5-hydroxy-2,3-dihydrobenzofuran]
Inhibitory effect on arteriosclerosis (in words) [1]: exhibits an inhibitory effect | Area of Arteriosclerotic lesions (mm^2) ([1]; female mice): 0.192 mm^2 | Area of Arteriosclerotic lesions (mm^2) ([1]; male mice): 0.185 mm^2 | Inhibitory effect on formation of xanthomas (in words) [2]: strong inhibitory effect | Xanthoma score ([2]; female mice): 1.25 ± 0.25 | Xanthoma score ([2]; male mice): 0.29 ± 0.20 | Inhibitory effect on arteriosclerosis (in words) [3]: strong inhibitory effect | Area of Arteriosclerotic lesions (mm^2) [3]: 0.150 mm^2 | Inhibitory effect on atherosclerosis (in words) [4]: strong inhibitory effect | Lesions in arch section (%) ([4]; 0.2% in normal chow diet): 65.7 ± 3.7% | Lesions in the whole aorta (%) ([4]; 0.2% in normal chow diet): 44.3 ± 6.8 % | Lesions in arch section (%) ([4]; 0.5% in normal chow diet): 52.6 ± 7.4 % | Lesions in the whole aorta (%) ([4]; 0.5% in normal chow diet): 37.4 ± 5.7 % | Atherosclerosis inhibitory effect compared with probucol (in words) ([4]; at a half of the dosage of probucol): comparable to that of probucol

CC(C)(Sc1cc(C(C)(C)C)c(O)c(C(C)(C)C)c1)Sc1cc(C(C)(C)C)c(O)c(C(C)(C)C)c1 [Probucol, probucol, reference compound]
Therapeutic effect on atherosclerosis in clinical tests (in words) (femoral atheroscleroses): no therapeutic effect | Inhibitory effect on arteriosclerosis (in words) [1]: not observed | Area of Arteriosclerotic lesions (mm^2) ([1]; female mice): 0.245 mm^2 | Area of Arteriosclerotic lesions (mm^2) ([1]; male mice): 0.376 mm^2 | Inhibitory effect on formation of xanthomas (in words) [2]: not observed | Xanthoma score ([2]; female mice): 3.43 ± 0.30 | Xanthoma score ([2]; male mice): 3.13 ± 0.30 | Inhibitory effect on arteriosclerosis (in words) [3]: not observed | Area of Arteriosclerotic lesions (mm^2) [3]: 0.451 mm^2 | Lesions in the whole aorta (%) ([4]; 1% in normal chow diet): 25.2 ± 2.6 % | Lesions in arch section (%) ([4]; 1% in normal chow diet, fat deposition area / overall area): 53.9 ± 5.6 %

From patent publication US6417225B1, “Prophylactic/therapeutic agents for atherosclerosis” (Chugai Seiyaku Kabushiki Kaisha, priority 1997, dated 2002)
